According to patent publication US20250186405A1, “Compound For Use In Treating Narcolepsy” (Alkermes, Inc., priority 2023, published 2025):
Where two headings read alike, the source gives them in different places.

What was measured:
Type in all cases: in vivo, human
[1] = Part 2 MAD: plasma pharmacokinetics, once daily for 10 days; details: for Cmax / AUC(0-t) / concentration at 8 h / Tmax / half-life / Vd/F: oral; for AUC(0-t): read-out: AUC0-24, ss; for concentration at 8 h: read-out: C8 (concentration at 8-hour postdose); for Vd/F: read-out: Vz/F
Procedure: Part 2 of the study is a MAD evaluation in healthy subjects consisting of 4 cohorts: Cohorts 1-4 received powder-in-capsule or matching placebo. Dose levels were as follows:
(§1) Blood samples (up to 5 mL per sample) were collected for PK analysis of Compound A and its metabolite(s). The actual time of sample collection was recorded. The PK samples of the subjects randomized to placebo treatment were not analyzed. Any remaining plasma PK samples were used to explore the presence of any additional metabolites and/or biomarkers.
(§2) Plasma and urine concentrations of Compound A and its metabolite(s) were measured using a validated high-performance liquid chromatography with tandem mass spectrometry.
The plasma PK parameters of Compound A and its metabolite(s) were determined from the plasma concentration-time profiles for all evaluable subjects. Actual sampling times, rather than scheduled sampling times, were used in all computations involving sampling times. The below lower limit of quantitation concentrations were set to zero prior to PK parameter estimation.
The PK population was used for summaries of plasma and urine Compound A and its metabolite(s) concentrations and for analyses, summaries, and listing of PK parameters. Accumulation ratio (Day 10/Day 1) for Cmax and AUC0-24 was estimated with 90% CIs using a linear fixed effects model on log-transformed parameters. Dose effect was assessed using a linear fixed effects model on log-transformed t1/2. Dose proportionality was assessed using a power model on Cmax and AUC0-24 on Day 1 and Day 10 separately. Within-subject and total standard deviations for log-transformed Cmax and AUC0-24 were estimated within a linear mixed effects framework.

[2] = system: non-sleep deprived healthy volunteers; test: Part 1 SAD: quantitative EEG (beta band power) and KSS biomarkers; details: single doses, resting wakeful state
Procedure: On Day −1, approximately 25 hours prior to study drug administration (on Day 1), baseline assessments for qEEG began and were collected for approximately 12 hours.
At time points within Part 1 of the study, qEEG assessment was performed. The subject remained still in a seated or supine position during the EEG acquisition time points. Each EEG acquisition continued for a total of 10 minutes: initial 5 minutes with eyes closed followed by 5 minutes with eyes open looking at a fixation point.
The PD parameters in the SAD evaluation (e.g., changes from baseline in QTcF, power of qEEG frequency bands, KSS) were summarized using descriptive statistics for each time point by dose level.
As discussed above in Example sections 4.10.3.2, 4.13.4, and 4.15.1, pharmacodynamic parameters in the SAD evaluation (e.g., changes from baseline in QTcF, power of qEEG frequency bands, KSS) were measured in non-sleep deprived healthy volunteers. […] The dots indicate the average post-dose measurements at each timepoint and the shaded areas show the confidence intervals. The data points representing Compound A cluster in the area associated with both higher beta power and increased alertness relative to placebo, with little overlap between the two groups.

[3] = Part 6 IH: plasma pharmacokinetics, single doses; details: for Cmax / AUC(0-t) / Tmax: human, oral, plasma; for Cmax / AUC(0-t): geometric mean; for AUC(0-t): read-out: AUC0-24
Procedure: Treatments were administered under fasted state. Dose levels were as follows:
Subjects were randomized to 1 of 4 sequences.
as §1, §2
The PK population was used for summaries of plasma Compound A and its metabolite(s) concentrations and for analyses, summaries, and listing of PK parameters. Dose proportionality for Cmax, AUC0-t, and AUC0-∞ was evaluated using a linear model of logarithmically transformed values to assess the slope parameter, and the 95% CI for the slope was estimated. Where a 95% CI of the slope includes 1, it was considered as evidence of dose proportionality for that PK parameter.

[4] = human, plasma, 3 mg, Day 1, geometric mean
[5] = human, plasma, 3 mg, Day 10, geometric mean
[6] = human, plasma, 8 mg, Day 1, geometric mean
[7] = human, plasma, 8 mg, Day 10, geometric mean
[8] = human, plasma, 15 mg, Day 1, geometric mean
[9] = human, plasma, 15 mg, Day 10, geometric mean
[10] = human, plasma, 25 mg, Day 1, geometric mean
[11] = human, plasma, 25 mg, Day 10, geometric mean

CS(=O)(=O)N[C@H]1CCCN2C(=O)COc3ccccc3C3CCC(CC3)OCC12 (stereo partly drawn) [Compound A, N-[(4S,4aR,7α,10α)-1,2,3,4,4a,5,7,8,9,10,16,17-dodecahydro-17-oxo-7,10-ethanopyrido[1,2-d][1,7,4]benzodioxaazacyclotridecin-4-yl]methanesulfonamide]
Accumulation ratio (Day 10/Day 1) AUC0-24 ([1]; 3 mg): 1.36 | Accumulation ratio (Day 10/Day 1) Cmax ([1]; 3 mg): 1.68 | CL/F ([1]; 3 mg, Day 10, geometric mean): 62.0 L/h | Ctrough ([1]; 3 mg, Day 10, geometric mean): 0.495 ng/mL | Accumulation ratio (Day 10/Day 1) AUC0-24 ([1]; 8 mg): 1.36 | Accumulation ratio (Day 10/Day 1) Cmax ([1]; 8 mg): 1.38 | CL/F ([1]; 8 mg, Day 10, geometric mean): 55.7 L/h | Ctrough ([1]; 8 mg, Day 10, geometric mean): 2.07 ng/mL | Accumulation ratio (Day 10/Day 1) AUC0-24 ([1]; 15 mg): 1.23 | Accumulation ratio (Day 10/Day 1) Cmax ([1]; 15 mg): 1.15 | CL/F ([1]; 15 mg, Day 10, geometric mean): 84.4 L/h | Ctrough ([1]; 15 mg, Day 10, geometric mean): 2.06 ng/mL | Accumulation ratio (Day 10/Day 1) AUC0-24 ([1]; 25 mg): 1.02 | Accumulation ratio (Day 10/Day 1) Cmax ([1]; 25 mg): 1.32 | CL/F ([1]; 25 mg, Day 10, geometric mean): 108 L/h | Ctrough ([1]; 25 mg, Day 10, geometric mean): 4.51 ng/mL | Cmax [1, 4]: 5.6 ng/mL | AUC(0-t) [1, 4]: 35.5 ng·h/mL | concentration at 8 h [1, 4]: 1.21 ng/mL | Tmax ([1]; human, plasma, 3 mg, Day 1, median, read-out: Tmax): 1.75 h | Cmax [1, 5]: 9.38 ng/mL | half-life [1, 5]: 578 min | AUC(0-t) [1, 5]: 48.4 ng·h/mL | concentration at 8 h [1, 5]: 1.39 ng/mL | Tmax ([1]; human, plasma, 3 mg, Day 10, median, read-out: Tmax): 1.5 h | Cmax [1, 6]: 16 ng/mL | AUC(0-t) [1, 6]: 104 ng·h/mL | concentration at 8 h [1, 6]: 3.89 ng/mL | Tmax ([1]; human, plasma, 8 mg, Day 1, median, read-out: Tmax): 1.75 h | Cmax [1, 7]: 22.1 ng/mL | half-life [1, 7]: 460 min | AUC(0-t) [1, 7]: 141 ng·h/mL | concentration at 8 h [1, 7]: 4.6 ng/mL | Tmax ([1]; human, plasma, 8 mg, Day 10, median, read-out: Tmax): 1.75 h | Cmax [1, 8]: 25.2 ng/mL | concentration at 8 h [1, 8]: 3.41 ng/mL | Tmax ([1]; human, plasma, 15 mg, Day 1, median, read-out: Tmax): 1.5 h | Cmax [1, 9]: 28.9 ng/mL | half-life [1, 9]: 840 min | concentration at 8 h [1, 9]: 4.62 ng/mL | Tmax ([1]; human, plasma, 15 mg, Day 10, median, read-out: Tmax): 1.75 h | Tmax ([1]; human, plasma, 25 mg, 3, 8, 15 and 25 mg, both Day 1 and Day 10 (range 1.0 to 6.0), read-out: median Tmax): 1.75 h | Cmax [1, 10]: 28 ng/mL | concentration at 8 h [1, 10]: 7.35 ng/mL | Tmax ([1]; human, plasma, 25 mg, Day 1, median, read-out: Tmax): 1.25 h | Cmax [1, 11]: 36.9 ng/mL | half-life [1, 11]: 954 min | concentration at 8 h [1, 11]: 7.39 ng/mL | Tmax ([1]; human, plasma, 25 mg, Day 10, median, read-out: Tmax): 1.5 h | Vd/F [1, 5]: 862 L | Vd/F [1, 7]: 616 L | Vd/F [1, 9]: 1700 L | Vd/F [1, 11]: 2480 L | half-life at 10 days ([1]; human, plasma, po, Day 10, 3 to 25 mg, read-out: terminal half-life following multiple oral dosing, range): 480 to 960 min | steady state expected to be achieved by ([1]; once daily dosing, from half-life): ≤ 4 days | qEEG beta band signal, change from baseline [2]: Dose-dependent increases in beta band signal were observed | fold change in AUC and Cmax for 5-fold change in dose ([3]; IH patients, 5 to 25 mg): approximately 3 fold | Cmax ([3]; 5 mg, IH, n = 7): 11.8 ng/mL | AUC(0-t) ([3]; 5 mg, IH, n = 7): 78.9 ng·h/mL | Cmax ([3]; 12 mg, IH, n = 7): 18.1 ng/mL | AUC(0-t) ([3]; 12 mg, IH, n = 7): 156 ng·h/mL | Cmax ([3]; 25 mg, IH, N = 8): 32.2 ng/mL | AUC(0-t) ([3]; 25 mg, IH, N = 8): 230 ng·h/mL | Tmax ([3]; 5 mg, IH, median, n = 7, read-out: Tmax): 1.5 h | Tmax ([3]; 12 mg, IH, median, n = 7, read-out: Tmax): 3 h | Tmax ([3]; 25 mg, IH patients, 5, 12, 25 mg, read-out: median tmax, range across doses): 1.5 to 3 h | Tmax ([3]; 25 mg, IH, median, N = 8, read-out: Tmax): 1.5 h
